Experimental findings from BindingDB's records for doi:10.1111/j.1476-5381.1995.tb16628.x (Syntex Discovery Research, 1995) are described below.

“And” between values parts separate entries of the source, which are not always exact repeats. Equal values may be shown once.

For test [1], the target named is 5-hydroxytryptamine receptor 2A (Rattus norvegicus, UniProt P14842).
In another test the target is D(2) dopamine receptor (Sus scrofa, UniProt F1SM69).
Another test concerns the target D(1A) dopamine receptor (Macaca mulatta, UniProt O77680).
Test [2] addresses 5-hydroxytryptamine receptor 4 (Cavia porcellus, UniProt O70528).
Test [3] deals with T1, 5-hydroxytryptamine receptor 1A (Rattus norvegicus, UniProt P19327).
T1 sequence (P19327 whole entry): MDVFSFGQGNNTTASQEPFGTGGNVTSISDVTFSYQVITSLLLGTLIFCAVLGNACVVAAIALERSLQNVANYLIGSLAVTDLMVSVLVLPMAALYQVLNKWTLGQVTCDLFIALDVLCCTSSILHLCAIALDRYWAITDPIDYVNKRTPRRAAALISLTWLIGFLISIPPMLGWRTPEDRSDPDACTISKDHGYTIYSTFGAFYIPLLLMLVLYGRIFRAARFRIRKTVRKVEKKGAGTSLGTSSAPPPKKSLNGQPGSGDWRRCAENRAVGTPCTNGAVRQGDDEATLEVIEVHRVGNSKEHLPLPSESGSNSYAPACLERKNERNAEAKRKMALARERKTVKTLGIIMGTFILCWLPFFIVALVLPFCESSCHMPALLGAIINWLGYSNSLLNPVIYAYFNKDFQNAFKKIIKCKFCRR

For test [4], the target named is T2, Muscarinic acetylcholine receptor M2 (Rattus norvegicus, UniProt P10980).
T2 sequence (P10980 whole entry): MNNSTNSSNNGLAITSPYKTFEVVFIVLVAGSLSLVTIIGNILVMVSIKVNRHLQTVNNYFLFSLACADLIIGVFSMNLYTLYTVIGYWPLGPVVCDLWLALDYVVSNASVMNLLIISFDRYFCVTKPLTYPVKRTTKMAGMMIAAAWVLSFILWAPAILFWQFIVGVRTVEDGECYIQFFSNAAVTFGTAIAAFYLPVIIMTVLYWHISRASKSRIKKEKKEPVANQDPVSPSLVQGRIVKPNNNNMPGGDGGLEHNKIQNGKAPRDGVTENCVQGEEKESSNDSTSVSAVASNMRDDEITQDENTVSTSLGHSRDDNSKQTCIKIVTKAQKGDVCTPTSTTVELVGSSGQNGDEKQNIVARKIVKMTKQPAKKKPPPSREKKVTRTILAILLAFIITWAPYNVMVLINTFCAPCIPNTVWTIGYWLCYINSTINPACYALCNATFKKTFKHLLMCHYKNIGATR

For test [5], the target named is Beta-2 adrenergic receptor (Rattus norvegicus, UniProt P10608).
Beta-2 adrenergic receptor, sequence (P10608 whole entry): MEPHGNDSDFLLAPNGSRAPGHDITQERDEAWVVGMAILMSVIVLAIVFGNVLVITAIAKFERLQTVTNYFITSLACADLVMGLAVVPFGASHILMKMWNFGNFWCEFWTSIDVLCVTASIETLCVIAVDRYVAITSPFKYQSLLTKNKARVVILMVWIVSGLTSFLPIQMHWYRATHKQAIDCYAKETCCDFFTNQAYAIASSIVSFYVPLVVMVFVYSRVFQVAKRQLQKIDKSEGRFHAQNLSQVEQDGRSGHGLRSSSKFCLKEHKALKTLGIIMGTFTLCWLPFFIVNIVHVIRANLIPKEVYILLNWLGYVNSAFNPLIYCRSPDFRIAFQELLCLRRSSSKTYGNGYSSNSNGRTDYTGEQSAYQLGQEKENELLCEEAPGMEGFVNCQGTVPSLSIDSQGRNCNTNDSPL
Test [6] has as its target T3, Alpha-2A adrenergic receptor [16-465] (Rattus norvegicus, UniProt P22909).
T3 construct: 16-465
T3 sequence (P22909 whole entry): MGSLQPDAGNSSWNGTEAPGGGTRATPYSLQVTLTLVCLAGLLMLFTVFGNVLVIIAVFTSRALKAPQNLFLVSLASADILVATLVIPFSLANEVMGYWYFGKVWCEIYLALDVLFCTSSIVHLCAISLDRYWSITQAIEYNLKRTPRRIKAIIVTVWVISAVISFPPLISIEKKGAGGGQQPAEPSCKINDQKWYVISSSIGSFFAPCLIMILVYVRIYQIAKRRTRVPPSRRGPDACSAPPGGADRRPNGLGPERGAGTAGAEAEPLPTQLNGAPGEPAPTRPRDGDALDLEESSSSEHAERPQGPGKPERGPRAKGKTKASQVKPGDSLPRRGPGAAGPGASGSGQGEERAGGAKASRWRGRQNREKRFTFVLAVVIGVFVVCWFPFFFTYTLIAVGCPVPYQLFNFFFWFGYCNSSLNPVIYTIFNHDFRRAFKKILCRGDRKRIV

In test [7] the target is T4, Alpha-2B adrenergic receptor (Rattus norvegicus, UniProt P19328).
T4 sequence (P19328 whole entry): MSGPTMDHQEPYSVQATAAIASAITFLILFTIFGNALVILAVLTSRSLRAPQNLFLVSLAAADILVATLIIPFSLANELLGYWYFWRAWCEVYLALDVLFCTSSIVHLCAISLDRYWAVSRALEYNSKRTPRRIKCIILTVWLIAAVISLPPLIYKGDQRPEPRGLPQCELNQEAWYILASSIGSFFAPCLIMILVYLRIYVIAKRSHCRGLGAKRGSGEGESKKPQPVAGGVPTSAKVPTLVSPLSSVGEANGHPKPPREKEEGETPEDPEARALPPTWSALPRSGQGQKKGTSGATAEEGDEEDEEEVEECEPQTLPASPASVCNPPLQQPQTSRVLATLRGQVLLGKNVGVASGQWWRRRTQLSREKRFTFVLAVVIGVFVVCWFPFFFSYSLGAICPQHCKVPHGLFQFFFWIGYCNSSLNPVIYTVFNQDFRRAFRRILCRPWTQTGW

Test [8] deals with T5, 5-hydroxytryptamine receptor 3A (Rattus norvegicus, UniProt P35563).
T5 sequence (P35563 whole entry): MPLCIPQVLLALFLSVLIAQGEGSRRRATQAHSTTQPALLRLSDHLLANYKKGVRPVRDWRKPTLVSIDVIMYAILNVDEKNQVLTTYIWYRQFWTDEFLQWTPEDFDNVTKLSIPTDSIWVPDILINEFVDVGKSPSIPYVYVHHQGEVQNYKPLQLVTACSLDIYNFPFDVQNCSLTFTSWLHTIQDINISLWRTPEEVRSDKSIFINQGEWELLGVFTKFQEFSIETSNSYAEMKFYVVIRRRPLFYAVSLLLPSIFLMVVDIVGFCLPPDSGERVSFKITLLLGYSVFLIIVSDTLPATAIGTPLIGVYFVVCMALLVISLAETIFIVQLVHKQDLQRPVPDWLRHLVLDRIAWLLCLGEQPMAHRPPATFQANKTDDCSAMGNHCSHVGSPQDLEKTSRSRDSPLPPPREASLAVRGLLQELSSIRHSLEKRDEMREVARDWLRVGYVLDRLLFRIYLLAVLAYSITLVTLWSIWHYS

For test [9], the target named is T6, Muscarinic acetylcholine receptor M1 (Rattus norvegicus, UniProt P08482).
T6 sequence (P08482 whole entry): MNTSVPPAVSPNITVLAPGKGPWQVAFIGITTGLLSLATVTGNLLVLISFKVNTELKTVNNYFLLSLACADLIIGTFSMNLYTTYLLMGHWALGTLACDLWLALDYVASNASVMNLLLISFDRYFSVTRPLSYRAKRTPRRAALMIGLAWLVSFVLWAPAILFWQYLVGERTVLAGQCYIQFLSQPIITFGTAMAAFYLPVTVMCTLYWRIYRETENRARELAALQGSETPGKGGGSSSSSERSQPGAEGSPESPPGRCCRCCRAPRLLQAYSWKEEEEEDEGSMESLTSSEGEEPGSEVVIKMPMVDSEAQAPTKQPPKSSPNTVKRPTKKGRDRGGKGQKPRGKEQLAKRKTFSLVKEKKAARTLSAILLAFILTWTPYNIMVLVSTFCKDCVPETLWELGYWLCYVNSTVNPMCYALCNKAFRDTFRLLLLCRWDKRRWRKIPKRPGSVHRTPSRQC

Test [10] deals with T7, 5-hydroxytryptamine receptor 2C (Rattus norvegicus, UniProt P08909).
T7 sequence (P08909 whole entry): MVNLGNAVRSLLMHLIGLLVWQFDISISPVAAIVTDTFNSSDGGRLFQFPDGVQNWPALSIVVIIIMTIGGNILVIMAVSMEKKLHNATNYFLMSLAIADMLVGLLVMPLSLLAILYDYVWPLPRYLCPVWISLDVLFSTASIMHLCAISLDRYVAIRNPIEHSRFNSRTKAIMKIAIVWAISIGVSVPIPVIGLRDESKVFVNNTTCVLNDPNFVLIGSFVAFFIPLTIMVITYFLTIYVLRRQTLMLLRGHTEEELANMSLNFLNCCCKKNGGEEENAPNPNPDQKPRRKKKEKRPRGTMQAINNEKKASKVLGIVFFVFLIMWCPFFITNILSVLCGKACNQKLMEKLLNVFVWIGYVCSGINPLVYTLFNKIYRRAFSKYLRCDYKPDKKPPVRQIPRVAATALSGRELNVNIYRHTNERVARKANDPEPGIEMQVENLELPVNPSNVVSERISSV

Test [11] concerns the target Sigma non-opioid intracellular receptor 1 (Cavia porcellus, UniProt Q60492).
Test [12] concerns the target T8, Alpha-1B adrenergic receptor (Rattus norvegicus, UniProt P15823).
T8 sequence (P15823 whole entry): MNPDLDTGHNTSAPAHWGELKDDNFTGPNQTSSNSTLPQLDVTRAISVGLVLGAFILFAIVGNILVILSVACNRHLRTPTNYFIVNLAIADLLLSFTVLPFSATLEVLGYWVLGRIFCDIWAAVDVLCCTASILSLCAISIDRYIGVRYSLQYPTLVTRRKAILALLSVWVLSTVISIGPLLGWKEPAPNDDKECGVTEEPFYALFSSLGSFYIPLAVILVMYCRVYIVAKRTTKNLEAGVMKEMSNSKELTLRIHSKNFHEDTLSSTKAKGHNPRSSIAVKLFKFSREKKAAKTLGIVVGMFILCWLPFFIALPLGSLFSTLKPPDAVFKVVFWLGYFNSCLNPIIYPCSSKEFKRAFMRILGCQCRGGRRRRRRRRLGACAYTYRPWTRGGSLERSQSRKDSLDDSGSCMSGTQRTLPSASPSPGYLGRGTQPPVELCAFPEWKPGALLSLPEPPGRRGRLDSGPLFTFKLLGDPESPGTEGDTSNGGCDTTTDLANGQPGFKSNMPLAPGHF

For test [13], the target named is T9, Alpha-1A adrenergic receptor (Rattus norvegicus, UniProt P43140).
T9 sequence (P43140 whole entry): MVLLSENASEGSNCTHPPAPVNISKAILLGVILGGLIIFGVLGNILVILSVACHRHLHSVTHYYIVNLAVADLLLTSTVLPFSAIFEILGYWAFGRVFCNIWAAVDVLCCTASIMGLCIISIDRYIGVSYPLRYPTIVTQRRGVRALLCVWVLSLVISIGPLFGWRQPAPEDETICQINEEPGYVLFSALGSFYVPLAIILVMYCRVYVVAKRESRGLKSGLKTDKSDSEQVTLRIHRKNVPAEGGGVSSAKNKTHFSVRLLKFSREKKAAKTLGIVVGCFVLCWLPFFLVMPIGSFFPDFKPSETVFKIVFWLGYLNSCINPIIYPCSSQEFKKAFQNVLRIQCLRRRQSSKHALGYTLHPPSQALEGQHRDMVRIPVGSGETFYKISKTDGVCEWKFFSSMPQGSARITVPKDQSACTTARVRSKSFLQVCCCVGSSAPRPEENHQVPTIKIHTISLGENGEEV

In test [14] the target is Beta-1 adrenergic receptor (Rattus norvegicus, UniProt P18090).
Beta-1 adrenergic receptor, sequence (P18090 whole entry): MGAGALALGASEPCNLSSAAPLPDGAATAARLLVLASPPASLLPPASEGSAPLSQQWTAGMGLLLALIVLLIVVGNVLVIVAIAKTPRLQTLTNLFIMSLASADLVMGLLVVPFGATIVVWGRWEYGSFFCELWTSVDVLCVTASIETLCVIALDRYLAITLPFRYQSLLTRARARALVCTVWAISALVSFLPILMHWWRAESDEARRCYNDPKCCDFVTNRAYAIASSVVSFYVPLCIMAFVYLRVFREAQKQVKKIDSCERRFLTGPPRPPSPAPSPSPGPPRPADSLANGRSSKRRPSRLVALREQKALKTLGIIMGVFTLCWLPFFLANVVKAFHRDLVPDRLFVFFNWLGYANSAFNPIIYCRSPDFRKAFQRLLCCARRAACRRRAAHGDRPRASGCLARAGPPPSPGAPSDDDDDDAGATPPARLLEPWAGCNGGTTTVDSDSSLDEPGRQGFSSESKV

Sigma non-opioid intracellular receptor 1, sequence (Q60492 whole entry): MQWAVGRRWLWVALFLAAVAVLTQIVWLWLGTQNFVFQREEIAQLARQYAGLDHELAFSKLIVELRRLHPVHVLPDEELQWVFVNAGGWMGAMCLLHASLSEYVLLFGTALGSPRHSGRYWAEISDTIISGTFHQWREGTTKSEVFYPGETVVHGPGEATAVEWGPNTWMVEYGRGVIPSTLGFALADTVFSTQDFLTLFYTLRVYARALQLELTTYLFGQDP
D(1A) dopamine receptor, sequence (O77680 whole entry): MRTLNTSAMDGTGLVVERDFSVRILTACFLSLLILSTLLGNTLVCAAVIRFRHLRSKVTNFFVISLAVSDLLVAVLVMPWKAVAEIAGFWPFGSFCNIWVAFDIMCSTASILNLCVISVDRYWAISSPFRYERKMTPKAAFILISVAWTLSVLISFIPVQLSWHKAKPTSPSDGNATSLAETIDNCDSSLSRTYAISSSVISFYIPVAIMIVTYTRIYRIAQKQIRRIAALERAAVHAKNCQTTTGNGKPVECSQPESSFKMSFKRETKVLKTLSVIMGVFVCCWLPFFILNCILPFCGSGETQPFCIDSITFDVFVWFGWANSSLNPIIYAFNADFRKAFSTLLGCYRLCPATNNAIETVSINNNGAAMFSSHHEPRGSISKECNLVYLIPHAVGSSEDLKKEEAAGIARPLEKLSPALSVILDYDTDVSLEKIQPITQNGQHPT
5-hydroxytryptamine receptor 2A, sequence (P14842 whole entry): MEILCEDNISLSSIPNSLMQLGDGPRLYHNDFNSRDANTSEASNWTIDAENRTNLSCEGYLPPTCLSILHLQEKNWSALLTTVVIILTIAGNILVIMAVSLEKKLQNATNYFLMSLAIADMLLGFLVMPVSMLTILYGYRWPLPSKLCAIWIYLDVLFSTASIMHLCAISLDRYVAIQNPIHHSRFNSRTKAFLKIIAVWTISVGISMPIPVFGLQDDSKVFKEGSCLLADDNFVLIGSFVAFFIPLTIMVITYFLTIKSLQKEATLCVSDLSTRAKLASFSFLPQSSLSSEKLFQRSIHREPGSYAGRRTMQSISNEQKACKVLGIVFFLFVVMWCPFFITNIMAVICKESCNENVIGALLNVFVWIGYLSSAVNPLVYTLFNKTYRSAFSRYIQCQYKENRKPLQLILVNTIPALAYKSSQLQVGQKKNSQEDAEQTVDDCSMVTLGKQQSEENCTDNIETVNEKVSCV
D(2) dopamine receptor, sequence (F1SM69 whole entry): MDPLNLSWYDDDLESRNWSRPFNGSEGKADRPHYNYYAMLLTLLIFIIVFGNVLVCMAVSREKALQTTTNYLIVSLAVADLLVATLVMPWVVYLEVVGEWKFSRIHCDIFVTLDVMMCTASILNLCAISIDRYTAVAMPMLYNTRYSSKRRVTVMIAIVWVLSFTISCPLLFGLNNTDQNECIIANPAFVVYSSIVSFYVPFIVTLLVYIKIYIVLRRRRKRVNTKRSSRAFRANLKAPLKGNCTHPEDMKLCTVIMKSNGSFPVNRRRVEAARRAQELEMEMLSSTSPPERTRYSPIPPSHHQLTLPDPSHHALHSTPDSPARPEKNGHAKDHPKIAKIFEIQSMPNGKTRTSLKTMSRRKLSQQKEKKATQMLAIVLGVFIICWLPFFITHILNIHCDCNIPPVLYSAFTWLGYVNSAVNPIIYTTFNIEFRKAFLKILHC
5-hydroxytryptamine receptor 4, sequence (O70528 whole entry): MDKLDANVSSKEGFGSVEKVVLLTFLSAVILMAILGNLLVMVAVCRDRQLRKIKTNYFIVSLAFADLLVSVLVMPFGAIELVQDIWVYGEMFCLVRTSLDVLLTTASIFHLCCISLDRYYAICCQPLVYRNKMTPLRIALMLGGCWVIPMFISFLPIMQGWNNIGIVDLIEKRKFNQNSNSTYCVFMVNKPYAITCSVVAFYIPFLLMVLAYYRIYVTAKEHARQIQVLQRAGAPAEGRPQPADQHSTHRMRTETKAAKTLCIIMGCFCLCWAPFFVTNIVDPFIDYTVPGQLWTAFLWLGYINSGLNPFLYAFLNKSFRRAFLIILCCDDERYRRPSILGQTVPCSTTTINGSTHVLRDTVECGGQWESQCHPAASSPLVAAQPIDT

`COc1cc(N)c(Cl)cc1C(=O)CCC1CCN(CCNS(C)(=O)=O)CC1` [CAS_133075]: the Ki is 1 µM in test [1]; > 10 µM at D(2) dopamine receptor; > 10 µM at D(1A) dopamine receptor; 0.00158 µM in test [2]; 2 µM in test [3]; > 10 µM in [4]. Further, the Ki in [5] was > 10 µM; in test [6], > 10 µM; in test [7], > 10 µM; in [8] it was 2.51 µM and 1.26 µM; in [9], > 10 µM; in [10], 2 µM. The Ki is 0.0126 µM and 0.0501 µM in test [11]; > 10 µM in test [12]; 0.398 µM in test [13]; > 10 µM in test [14].
As for `CCCCN1CCC(CCC(=O)c2cc(Cl)c(N)cc2OC)CC1` [CAS_183782], the Ki is 0.501 µM in test [1]; > 10 µM at D(2) dopamine receptor; > 10 µM on D(1A) dopamine receptor; 0.00199 µM in test [2]; 5.01 µM in test [4]; > 10 µM in test [5]. The Ki in test [6] is > 10 µM; in test [7], > 10 µM; in test [8], 0.398 µM and 1.26 µM; in test [9], 6.31 µM; in test [10], 0.794 µM; in test [11] it was 0.00125 µM and 0.01 µM. Besides, the Ki in test [12] is 1.26 µM; in test [13], 0.2 µM; in test [14], > 10 µM.
